Reference: US20170190705A1, “Compositions and Methods for Inhibiting BMP” (THE BRIGHAM AND WOMAN'S HOSPITAL, INC., priority 2014, published 2017)
Like-named read-outs stand apart in the source and are kept apart here.

Tests used:
BMP6 = experiment: Ligand induced transcriptional activity assay BMP6 (BRE-Luc); format: cell-based
TNK2 = TNK2 (Homo sapiens, UniProt Q07912); experiment: Kinome profiling TNK2; format: biochemical; settings: read-out: Inhibitory activity TNK2; for inhibition at 0.1 µM: 100 nM
Procedure: (§1) . The kinome-wide selectivity was determined following the methods previously reported by Mohedas et al., ACS Chem Biol 2013, 8, 1291-1302 and Sanvitale et al., PLoS One 2013, 8, e62721.

CK1α = CK1α (Homo sapiens, UniProt P48729); experiment: Kinome profiling CK1α; format: biochemical; settings: read-out: Inhibitory activity CK1α; for inhibition at 0.1 µM: 100 nM
Procedure: as §1

EPHB3 = biological target: T1, EPHB3 (Homo sapiens, UniProt P54753); experiment: Kinome profiling EPHB3; format: biochemical; settings: read-out: Inhibitory activity EPHB3; for inhibition at 0.1 µM: 100 nM
T1 sequence (P54753 34-998): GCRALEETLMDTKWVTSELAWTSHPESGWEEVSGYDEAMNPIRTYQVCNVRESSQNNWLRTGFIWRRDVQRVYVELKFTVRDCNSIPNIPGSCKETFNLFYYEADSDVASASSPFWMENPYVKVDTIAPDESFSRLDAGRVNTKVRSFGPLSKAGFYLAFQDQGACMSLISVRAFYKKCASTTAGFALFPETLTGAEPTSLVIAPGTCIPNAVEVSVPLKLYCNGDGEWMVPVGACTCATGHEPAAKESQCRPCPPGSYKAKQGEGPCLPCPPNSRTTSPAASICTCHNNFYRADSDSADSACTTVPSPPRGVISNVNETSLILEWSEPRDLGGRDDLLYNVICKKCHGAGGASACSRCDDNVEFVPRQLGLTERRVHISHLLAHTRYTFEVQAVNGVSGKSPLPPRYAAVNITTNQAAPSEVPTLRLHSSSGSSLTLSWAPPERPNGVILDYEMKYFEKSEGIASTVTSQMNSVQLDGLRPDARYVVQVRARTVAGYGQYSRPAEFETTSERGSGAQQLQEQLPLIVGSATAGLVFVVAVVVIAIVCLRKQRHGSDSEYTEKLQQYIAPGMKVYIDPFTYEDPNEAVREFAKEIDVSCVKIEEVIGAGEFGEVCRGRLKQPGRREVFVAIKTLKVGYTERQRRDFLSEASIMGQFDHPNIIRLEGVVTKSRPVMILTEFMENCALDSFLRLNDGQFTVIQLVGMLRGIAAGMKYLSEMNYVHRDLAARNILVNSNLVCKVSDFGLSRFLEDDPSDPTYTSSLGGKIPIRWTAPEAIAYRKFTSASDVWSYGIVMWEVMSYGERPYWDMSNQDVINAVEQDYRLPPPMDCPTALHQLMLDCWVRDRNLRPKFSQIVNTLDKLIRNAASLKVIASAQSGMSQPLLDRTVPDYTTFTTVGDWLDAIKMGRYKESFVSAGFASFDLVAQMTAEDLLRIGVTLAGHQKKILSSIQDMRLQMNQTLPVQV
Procedure: as §1

PKC-α = PKC-α (Homo sapiens, UniProt P17252); experiment: Kinome profiling PKC-α; format: biochemical; settings: read-out: Inhibitory activity PKC-α; for inhibition at 0.1 µM: 100 nM
Procedure: as §1

NEK6 = NEK6 (Homo sapiens, UniProt Q9HC98); experiment: Kinome profiling NEK6; format: biochemical; settings: read-out: Inhibitory activity NEK6; for inhibition at 0.1 µM: 100 nM
NEK6, sequence (Q9HC98 whole entry): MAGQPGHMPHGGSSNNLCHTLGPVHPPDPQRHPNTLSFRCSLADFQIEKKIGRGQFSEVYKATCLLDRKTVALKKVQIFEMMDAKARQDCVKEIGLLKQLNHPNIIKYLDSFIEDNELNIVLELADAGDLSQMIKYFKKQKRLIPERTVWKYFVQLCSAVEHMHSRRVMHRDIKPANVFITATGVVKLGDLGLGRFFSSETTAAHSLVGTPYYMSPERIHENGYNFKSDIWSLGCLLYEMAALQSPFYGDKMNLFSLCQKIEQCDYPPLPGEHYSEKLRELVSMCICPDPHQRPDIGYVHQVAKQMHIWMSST
Procedure: as §1

JNK2 = JNK2 (Homo sapiens, UniProt P45984); experiment: Kinome profiling JNK2; format: biochemical; settings: read-out: Inhibitory activity JNK2; for inhibition at 0.1 µM: 100 nM
JNK2, sequence (P45984 whole entry): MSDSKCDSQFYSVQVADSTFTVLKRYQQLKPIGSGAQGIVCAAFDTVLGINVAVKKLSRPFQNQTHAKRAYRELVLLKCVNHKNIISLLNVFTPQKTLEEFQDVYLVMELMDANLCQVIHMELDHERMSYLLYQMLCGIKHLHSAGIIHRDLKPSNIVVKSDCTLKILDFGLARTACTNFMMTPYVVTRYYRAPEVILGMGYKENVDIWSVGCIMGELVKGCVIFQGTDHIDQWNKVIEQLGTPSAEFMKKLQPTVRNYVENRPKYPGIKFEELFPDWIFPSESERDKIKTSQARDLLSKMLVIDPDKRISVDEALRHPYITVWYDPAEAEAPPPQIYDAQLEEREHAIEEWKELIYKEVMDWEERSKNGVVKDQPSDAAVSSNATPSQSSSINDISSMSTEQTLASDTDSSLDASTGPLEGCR
Procedure: as §1

IRR = IRR (Homo sapiens, UniProt P14616); experiment: Kinome profiling IRR; format: biochemical; settings: read-out: Inhibitory activity IRR; for inhibition at 0.1 µM: 100 nM
IRR, sequence (P14616 27-1297): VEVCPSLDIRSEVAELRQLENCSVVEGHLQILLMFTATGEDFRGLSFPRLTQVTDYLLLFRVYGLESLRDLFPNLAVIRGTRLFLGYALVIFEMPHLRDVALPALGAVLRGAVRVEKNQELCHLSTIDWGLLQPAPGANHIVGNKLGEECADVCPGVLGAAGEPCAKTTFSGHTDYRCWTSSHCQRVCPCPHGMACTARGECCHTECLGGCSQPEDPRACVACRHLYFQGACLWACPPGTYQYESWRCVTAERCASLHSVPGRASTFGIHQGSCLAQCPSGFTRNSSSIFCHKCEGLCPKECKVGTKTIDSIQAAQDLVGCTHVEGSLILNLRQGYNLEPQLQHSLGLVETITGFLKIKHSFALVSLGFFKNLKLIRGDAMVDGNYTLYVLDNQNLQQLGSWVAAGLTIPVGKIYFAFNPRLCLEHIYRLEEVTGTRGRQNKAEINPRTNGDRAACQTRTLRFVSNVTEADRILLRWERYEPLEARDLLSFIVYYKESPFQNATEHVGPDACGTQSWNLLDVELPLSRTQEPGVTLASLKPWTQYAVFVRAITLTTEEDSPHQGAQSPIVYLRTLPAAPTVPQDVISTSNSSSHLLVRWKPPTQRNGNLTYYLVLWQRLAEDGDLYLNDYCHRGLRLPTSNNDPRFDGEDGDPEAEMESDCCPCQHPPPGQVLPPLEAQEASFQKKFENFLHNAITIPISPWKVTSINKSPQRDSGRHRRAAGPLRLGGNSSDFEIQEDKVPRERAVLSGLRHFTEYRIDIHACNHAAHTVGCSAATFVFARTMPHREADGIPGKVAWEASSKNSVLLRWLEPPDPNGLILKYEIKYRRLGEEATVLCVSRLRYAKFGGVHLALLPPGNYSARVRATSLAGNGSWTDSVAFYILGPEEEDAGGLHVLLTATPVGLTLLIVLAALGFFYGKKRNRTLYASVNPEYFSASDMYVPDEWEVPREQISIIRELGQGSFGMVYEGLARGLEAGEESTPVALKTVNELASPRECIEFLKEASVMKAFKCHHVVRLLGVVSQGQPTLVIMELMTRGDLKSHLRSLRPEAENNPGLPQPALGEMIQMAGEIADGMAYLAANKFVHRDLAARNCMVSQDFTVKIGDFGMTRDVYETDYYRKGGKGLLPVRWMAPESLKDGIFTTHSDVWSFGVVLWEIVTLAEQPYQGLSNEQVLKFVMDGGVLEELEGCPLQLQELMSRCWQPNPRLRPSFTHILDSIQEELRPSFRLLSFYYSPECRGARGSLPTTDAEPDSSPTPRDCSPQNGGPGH
Procedure: as §1

RSK4 = RSK4 (Homo sapiens, UniProt Q9UK32); experiment: Kinome profiling RSK4; format: biochemical; settings: read-out: Inhibitory activity RSK4; for inhibition at 0.1 µM: 100 nM
RSK4, sequence (Q9UK32 whole entry): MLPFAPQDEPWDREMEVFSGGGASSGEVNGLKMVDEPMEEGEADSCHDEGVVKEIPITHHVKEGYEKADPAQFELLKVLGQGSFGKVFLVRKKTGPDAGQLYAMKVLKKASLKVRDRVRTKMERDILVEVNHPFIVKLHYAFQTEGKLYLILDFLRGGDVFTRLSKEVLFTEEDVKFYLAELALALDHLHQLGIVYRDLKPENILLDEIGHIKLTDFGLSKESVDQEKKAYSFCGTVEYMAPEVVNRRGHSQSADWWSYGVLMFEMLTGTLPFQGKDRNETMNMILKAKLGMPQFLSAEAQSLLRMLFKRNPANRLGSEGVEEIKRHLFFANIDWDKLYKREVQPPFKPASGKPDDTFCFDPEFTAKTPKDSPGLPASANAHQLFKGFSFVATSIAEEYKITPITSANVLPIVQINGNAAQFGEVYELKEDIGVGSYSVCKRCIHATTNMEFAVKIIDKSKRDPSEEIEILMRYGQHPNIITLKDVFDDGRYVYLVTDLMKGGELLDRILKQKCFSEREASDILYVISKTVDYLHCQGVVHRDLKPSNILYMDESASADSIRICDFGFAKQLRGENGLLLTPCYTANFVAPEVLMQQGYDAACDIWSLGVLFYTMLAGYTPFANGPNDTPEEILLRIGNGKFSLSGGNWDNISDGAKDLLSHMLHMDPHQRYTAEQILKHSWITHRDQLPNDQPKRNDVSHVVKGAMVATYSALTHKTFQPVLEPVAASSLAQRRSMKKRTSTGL
Procedure: as §1

GRK6 = GRK6 (Homo sapiens, UniProt P43250); experiment: Kinome profiling GRK6; format: biochemical; settings: read-out: Inhibitory activity GRK6; for inhibition at 0.1 µM: 100 nM
Procedure: as §1

ROCK1 = ROCK1 (Homo sapiens, UniProt Q13464); experiment: Kinome profiling ROCK1; format: biochemical; settings: read-out: Inhibitory activity ROCK1; for inhibition at 0.1 µM: 100 nM
ROCK1, sequence (Q13464 whole entry): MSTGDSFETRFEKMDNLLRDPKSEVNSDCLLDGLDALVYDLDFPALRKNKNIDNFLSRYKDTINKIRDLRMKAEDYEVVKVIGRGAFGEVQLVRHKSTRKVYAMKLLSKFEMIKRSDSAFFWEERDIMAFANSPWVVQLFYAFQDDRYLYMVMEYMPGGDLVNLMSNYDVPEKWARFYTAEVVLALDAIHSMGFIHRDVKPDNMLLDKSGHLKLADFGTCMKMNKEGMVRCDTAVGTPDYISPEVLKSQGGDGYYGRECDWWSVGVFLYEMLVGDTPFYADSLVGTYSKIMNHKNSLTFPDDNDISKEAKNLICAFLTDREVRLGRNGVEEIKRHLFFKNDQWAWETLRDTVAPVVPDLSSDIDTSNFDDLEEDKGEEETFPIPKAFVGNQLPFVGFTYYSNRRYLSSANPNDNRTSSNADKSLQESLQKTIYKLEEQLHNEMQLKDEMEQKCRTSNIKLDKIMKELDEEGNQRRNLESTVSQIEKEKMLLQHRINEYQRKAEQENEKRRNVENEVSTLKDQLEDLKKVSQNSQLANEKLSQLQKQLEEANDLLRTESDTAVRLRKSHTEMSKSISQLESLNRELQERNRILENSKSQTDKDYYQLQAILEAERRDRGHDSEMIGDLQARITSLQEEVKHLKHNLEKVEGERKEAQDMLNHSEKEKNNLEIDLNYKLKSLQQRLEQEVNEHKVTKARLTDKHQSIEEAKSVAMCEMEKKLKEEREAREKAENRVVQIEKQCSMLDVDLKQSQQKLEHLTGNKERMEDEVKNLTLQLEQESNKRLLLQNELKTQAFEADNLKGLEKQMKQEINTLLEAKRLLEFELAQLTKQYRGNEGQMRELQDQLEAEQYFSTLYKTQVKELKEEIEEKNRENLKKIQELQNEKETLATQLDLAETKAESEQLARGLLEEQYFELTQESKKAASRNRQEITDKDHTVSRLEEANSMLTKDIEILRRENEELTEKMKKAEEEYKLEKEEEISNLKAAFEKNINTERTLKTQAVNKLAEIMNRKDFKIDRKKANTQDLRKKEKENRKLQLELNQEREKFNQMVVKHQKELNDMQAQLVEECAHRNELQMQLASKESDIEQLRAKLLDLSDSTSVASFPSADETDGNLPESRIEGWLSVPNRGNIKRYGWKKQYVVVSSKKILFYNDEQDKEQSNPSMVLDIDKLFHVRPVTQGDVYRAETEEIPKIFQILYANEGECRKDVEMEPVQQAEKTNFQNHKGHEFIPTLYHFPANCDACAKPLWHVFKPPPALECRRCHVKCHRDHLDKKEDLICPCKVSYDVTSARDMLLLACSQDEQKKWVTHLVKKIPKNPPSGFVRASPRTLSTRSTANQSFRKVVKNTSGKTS
Procedure: as §1

GRK7 = biological target: T2, GRK7 (Homo sapiens, UniProt Q8WTQ7); experiment: Kinome profiling GRK7; format: biochemical; settings: read-out: Inhibitory activity GRK7; for inhibition at 0.1 µM: 100 nM
T2 sequence (Q8WTQ7 1-553): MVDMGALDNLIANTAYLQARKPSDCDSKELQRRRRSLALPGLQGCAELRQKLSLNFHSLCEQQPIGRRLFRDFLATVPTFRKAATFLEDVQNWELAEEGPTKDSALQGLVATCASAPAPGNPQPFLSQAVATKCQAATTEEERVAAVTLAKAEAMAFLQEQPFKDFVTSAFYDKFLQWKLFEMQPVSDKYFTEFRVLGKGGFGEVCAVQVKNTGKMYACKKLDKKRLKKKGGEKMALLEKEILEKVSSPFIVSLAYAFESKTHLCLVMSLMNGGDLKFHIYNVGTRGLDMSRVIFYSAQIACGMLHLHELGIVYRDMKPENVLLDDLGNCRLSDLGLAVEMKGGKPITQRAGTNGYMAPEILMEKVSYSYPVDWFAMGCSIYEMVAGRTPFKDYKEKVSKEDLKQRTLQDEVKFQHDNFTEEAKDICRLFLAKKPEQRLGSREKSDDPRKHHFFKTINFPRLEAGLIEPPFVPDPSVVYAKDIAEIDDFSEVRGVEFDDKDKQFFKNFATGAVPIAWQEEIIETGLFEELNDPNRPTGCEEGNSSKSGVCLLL
Procedure: as §1

CDK1/cyclinB = CDK1/cyclinB (Homo sapiens, UniProt P06493); experiment: Kinome profiling CDK1/cyclinB; format: biochemical; settings: read-out: Inhibitory activity CDK1/cyclinB; for inhibition at 0.1 µM: 100 nM
Procedure: as §1

PIM-1 = PIM-1 (Homo sapiens, UniProt P11309); experiment: Kinome profiling PIM-1; format: biochemical; settings: read-out: Inhibitory activity PIM-1; for inhibition at 0.1 µM: 100 nM
Procedure: as §1

SMILES	inhibition at 0.1 µM (TNK2)	inhibition at 1 µM (TNK2)	inhibition at 0.1 µM (CK1α)	inhibition at 1 µM (CK1α)	inhibition at 0.1 µM (EPHB3)	inhibition at 1 µM (EPHB3)	inhibition at 0.1 µM (PKC-α)	inhibition at 1 µM (PKC-α)	inhibition at 0.1 µM (NEK6)	inhibition at 1 µM (NEK6)	inhibition at 0.1 µM (JNK2)	inhibition at 1 µM (JNK2)	inhibition at 0.1 µM (IRR)	inhibition at 1 µM (IRR)	inhibition at 0.1 µM (RSK4)	inhibition at 1 µM (RSK4)	inhibition at 0.1 µM (GRK6)	inhibition at 1 µM (GRK6)	inhibition at 0.1 µM (ROCK1)	inhibition at 1 µM (ROCK1)	also measured
COc1cc(-c2cc(-c3ccc(N4CCNCC4)cc3)cnc2C)cc(OC)c1OC [Compound 10, 1-(4-(6-methyl-5-(3,4,5-trimethoxyphenyl)pyridin-3-yl)phenyl)piperazine]	6%	35%	2%	7%	1%	1%	2%	3%	1%	0%	0%	2%	2%	1%	1%	1%	8%	3%	1%	0%	IC50 (BMP6; Table 7, read-out: Ligand Induced BMP6 IC50): 67 nM; IC50 (BMP6; cell-based signaling inhibition, read-out: BMP6 IC50): 100 ± 1 nM; inhibition at 0.1 µM (GRK7): 3%; inhibition at 1 µM (GRK7): 4%; inhibition at 0.1 µM (CDK1/cyclinB): 2%; inhibition at 1 µM (CDK1/cyclinB): 3%; inhibition at 0.1 µM (PIM-1): 1%; inhibition at 1 µM (PIM-1): 0%
COc1cc(-c2cc(-c3ccc(N4CCNCC4)cc3)cnc2N)cc(OC)c1OC [Compound 15, 5-(4-(piperazin-1-yl)phenyl)-3-(3,4,5-trimethoxyphenyl)pyridin-2-amine]	6%	44%	5%	18%	5%	7%	1%	6%	0%	4%	2%	3%	3%	3%	1%	2%	0%	0%	0%	0%	inhibition at 0.1 µM (GRK7): 2%; inhibition at 1 µM (GRK7): 0%; inhibition at 0.1 µM (CDK1/cyclinB): -1%; inhibition at 1 µM (CDK1/cyclinB): 0%; inhibition at 0.1 µM (PIM-1): 0%; inhibition at 1 µM (PIM-1): -1%
